target: T1, Recombinant human EP300 containing the bromodomain (EP300-BD (1040-1161)) (Homo sapiens, UniProt Q09472); assay: EP300 Alphascreen binding assay
T1 construct: Recombinant human EP300 bromodomain (EP300-BD (1040-1161)); made in house; host or cells: E. coli BL21-CodonPlus (DE3), modified pET vector
T1 sequence (Q09472 1040-1161): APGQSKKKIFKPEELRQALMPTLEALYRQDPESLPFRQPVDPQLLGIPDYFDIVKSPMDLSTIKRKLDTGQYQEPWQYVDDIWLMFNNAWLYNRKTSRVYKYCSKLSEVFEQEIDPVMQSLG
Procedure: EP300 Alphascreen Binding Assay
Binding of compounds of Formula (I) with EP300 was assessed using Alphascreen™ binding assay. The inhibition of the interaction between the EP300 bromodomain and its acetylated target protein was measured quantitatively using recombinant EP300 protein, an acetylated Histone 3 peptide and AlphaScreen™ technology. In absence of inhibition of the EP300 protein bound to AlphaScreen™ nickel chelate acceptor beads can interact with the acetylated Histone 3 peptide which is immobilized by the AlphaScreen™ Streptavidin coated beads. This interaction brings donor and acceptor beads in proximity. The close proximity allows the singlet oxygen produced by laser excitation of the donor beads to reach the acceptor beads and generate a luminescence signal. EP300 inhibitors result in a decrease in the proximity signal through an inhibition of the EP300—acetylated peptide interaction.
Recombinant human EP300 containing the bromodomain (EP300-BD (1040-1161)) was prepared and purified as described in protein expression and purification session. The peptide is human Histone H345-64K56Ac-Biotin (Anaspec CA, USA).
Protocol for EP300 assay: All components were prepared in buffer composed of 50 mM HEPES pH 7.5, 50 mM NaCl, 0.01% BSA, 0.01% Triton X-100, 2 mM DTT. Test compounds and DMSO vehicle were diluted 1:50 in buffer and a 4 μL volume is transferred to an Alphaplate. 5.5 μL of EP300 protein and 5.5 μL of peptide were added to wells containing 4 μL of various concentrations of test compounds of Formula (I) or DMSO vehicle in an Alphaplate (PerkinElmer GA, USA) and incubated for 1 hour at room temperature. 5 μL donor and acceptor bead mixture was then added with final concentrations of 7.5 μg/ml. 60 minutes after bead addition, Alpha signal is read on the Envision spectrometer (λEx 680 nm, λEm 520-620 nm). Final concentrations of bromodomain proteins and peptide are as shown below.
All data were normalized to the mean of 16 high and 16 low control wells on each plate. A four parameter curve fit of the following formula was then applied: Y=A+((B−A)/(1+((C/x)^D))) Where ‘A’ is the minimum, ‘B’ is the maximum, ‘C’ is the IC50 and ‘D’ is the Hill slope. Protein Expression and Purification
Recombinant human EP300 bromodomain (EP300-BD (1040-1161)) was expressed in E. coli cells (in a modified pET vector) with an N-terminal six-His tag and purified using a combination of both IMAC (Ni-affinity) and size exclusion chromatography steps.
Recombinant EP300 protein was expressed using the E. coli strain BL21-CodonPlus (DE3) (Agilent Technologies CA, USA). Cells were grown in Terrific Broth (TB) media to an OD600 of 0.7 at 37° C. at which temperature was reduced to 18° C., protein was induced with 1.0 mM isopropyl-β-D-thiogalactopyranoside (“IPTG”) for 20 hours and harvested by centrifugation at 8500×g for 20 minutes. Cells were re-suspended in 0.1M K2PO4 pH 8.0, 250 mM NaCl, 10% Glycerol, 0.75% NP-40, 25 mM Imidazole, with 0.2 mg/ml Lysozyme, 0.2 mM phenylmethanesulfonyl fluoride (“PMSF”), 25 μg/ml DNase I, incubated on ice for 30 minutes and lysed with a cell disruptor (MicroFluidics MA, USA). The lysate was clarified by centrifugation at 20,000×g for 1 hour. The protein was captured with Ni-NTA resin (Life Technologies, USA). Contaminating proteins were washed off with 50 mM HEPES pH 7.5, 500 mM NaCl, and 5% Glycerol. Following 3× wash steps, protein was eluted step wise using 10, 25, 50, 100, 150, and 250 mM Imidazole in 50 mM HEPES pH 7.5, 500 mM NaCl, and 5% glycerol. The protein was further purified using a size exclusion column (26/600 Superdex 200, GE Biosciences NJ, USA) in 10 mM HEPES pH 7.5, […].

| Structure (SMILES) | IC50 |
| --- | --- |
| Cc1noc(C)c1-c1cnc2c(CC3CCC3)cn(-c3ccc([N+](=O)[O-])cc3F)c2c1 [P-0130, 4-(3-(cyclobutylmethyl)-1-(2-fluoro-4-nitrophenyl)-1H-pyrrolo[3,2-b]pyridin-6-yl)-3,5-dimethylisoxazole] | 8 to 1000 µM |
| CCOc1cc(C(=O)O)cc(OCC)c1-c1cn([C@@H](C)c2ccccn2)c2ncc(-c3c(C)noc3C)cc12 [P-0147, (S)-4-(5-(3,5-dimethylisoxazol-4-yl)-1-(1-(pyridin-2-yl)ethyl)-1H-pyrrolo[2,3-b]pyridin-3-yl)-3,5-diethoxybenzoic acid] | 0.0001 to 1 µM |
| COc1cc(C(=O)O)cc(OCC(F)(F)F)c1-c1cn([C@@H](C)c2ccccn2)c2ncc(-c3c(C)noc3C)cc12 [P-0153, (S)-4-(5-(3,5-dimethylisoxazol-4-yl)-1-(1-(pyridin-2-yl)ethyl)-1H-pyrrolo[2,3-b]pyridin-3-yl)-3-methoxy-5-(2,2,2-trifluoroethoxy)benzoic acid] | 0.0001 to 1 µM |
| Cc1noc(C)c1-c1cnc2c(CC3CCC3)cn(-c3c(OC(C)C)cc(C(=O)O)cc3OC(C)C)c2c1 [P-0111, 4-(3-(cyclobutylmethyl)-6-(3,5-dimethylisoxazol-4-yl)-1H-pyrrolo[3,2-b]pyridin-1-yl)-3,5-diisopropoxybenzoic acid] | 0.0001 to 1 µM |
| Cc1noc(C)c1-c1cnc2c(c1)c(-c1ccc(C(=O)O)cc1)cn2C(c1ccccn1)c1ccccn1 [P-0012, 4-(1-(di(pyridin-2-yl)methyl)-5-(3,5-dimethylisoxazol-4-yl)-1H-pyrrolo[2,3-b]pyridin-3-yl)benzoic acid] | 0.0001 to 1 µM |
| COc1cc(C(=O)O)cc(O)c1-c1cn([C@@H](C)c2ccccn2)c2ncc(-c3c(C)noc3C)cc12 [P-0144, (S)-4-(5-(3,5-dimethylisoxazol-4-yl)-1-(1-(pyridin-2-yl)ethyl)-1H-pyrrolo[2,3-b]pyridin-3-yl)-3-hydroxy-5-methoxybenzoic acid] | 0.0001 to 1 µM |
| CCOc1cc(C(=O)O)cc(OCC)c1-n1cc(CC2CCC2)c2ncc(-c3c(C)noc3C)cc21 [P-0109, 4-(3-(cyclobutylmethyl)-6-(3,5-dimethylisoxazol-4-yl)-1H-pyrrolo[3,2-b]pyridin-1-yl)-3,5-diethoxybenzoic acid] | 0.0001 to 1 µM |
| Cc1noc(C)c1-c1cnc2c(-c3cc(C(=O)O)ccc3Cl)cn(C(C)c3ccccc3)c2c1 (centres unmarked) [P-0141, 4-chloro-3-(6-(3,5-dimethylisoxazol-4-yl)-1-(1-phenylethyl)-1H-pyrrolo[3,2-b]pyridin-3-yl)benzoic acid] | 0.0001 to 1 µM |
| COc1ccc(-n2cc(CC3CCC3)c3ncc(-c4c(C)noc4C)cc32)cn1 [P-0134, 4-(3-(cyclobutylmethyl)-1-(6-methoxypyridin-3-yl)-1H-pyrrolo[3,2-b]pyridin-6-yl)-3,5-dimethylisoxazole] | 1 to 8 µM |
| Cc1noc(C)c1-c1cnc2c(c1)c(-c1ccc(C(=O)O)cn1)cn2C(C)c1ccccn1 (centres unmarked) [P-0123, 6-(5-(3,5-dimethylisoxazol-4-yl)-1-(1-(pyridin-2-yl)ethyl)-1H-pyrrolo[2,3-b]pyridin-3-yl)nicotinic acid] | 0.0001 to 1 µM |
| CCCOc1cc(C(=O)O)cc(OCCC)c1-c1cn([C@@H](C)c2ccccn2)c2ncc(-c3c(C)noc3C)cc12 [P-0117, (S)-4-(5-(3,5-dimethylisoxazol-4-yl)-1-(1-(pyridin-2-yl)ethyl)-1H-pyrrolo[2,3-b]pyridin-3-yl)-3,5-dipropoxybenzoic acid] | 0.0001 to 1 µM |
| Cc1noc(C)c1-c1cc2c(cn1)c(CC1CCC1)cn2-c1c(Cl)cc(C(=O)O)cc1Cl [P-0149, 3,5-dichloro-4-(3-(cyclobutylmethyl)-6-(3,5-dimethylisoxazol-4-yl)-1H-pyrrolo[3,2-c]pyridin-1-yl)benzoic acid] | 0.0001 to 1 µM |
| Cc1noc(C)c1-c1cnc2c(-c3ccccc3C#N)cn(C(C)(c3ccccn3)c3ccccn3)c2c1 [P-0169, 2-(1-(1,1-di(pyridin-2-yl)ethyl)-6-(3,5-dimethylisoxazol-4-yl)-1H-pyrrolo[3,2-b]pyridin-3-yl)benzonitrile] | 0.0001 to 1 µM |
| COc1cc(C(=O)O)cc(OC)c1-c1cn(C(C)c2ccccc2)c2cc(-c3c(C)noc3C)cnc12 (centres unmarked) [P-0119, 4-(6-(3,5-dimethylisoxazol-4-yl)-1-(1-phenylethyl)-1H-pyrrolo[3,2-b]pyridin-3-yl)-3,5-dimethoxybenzoic acid] | 0.0001 to 1 µM |
| Cc1noc(C)c1-c1cnc2c(Cc3ccccc3Cl)cn(-c3c(Cl)cc(C(=O)O)cc3Cl)c2c1 [P-0131, 3,5-dichloro-4-(3-(2-chlorobenzyl)-6-(3,5-dimethylisoxazol-4-yl)-1H-pyrrolo[3,2-b]pyridin-1-yl)benzoic acid] | 0.0001 to 1 µM |
| Cc1noc(C)c1-c1cnc2c(C(=O)c3cccc(OCc4ccccc4)c3)cn(-c3c(Cl)cc(C(=O)O)cc3Cl)c2c1 [P-0133, 4-(3-(3-(benzyloxy)benzoyl)-6-(3,5-dimethylisoxazol-4-yl)-1H-pyrrolo[3,2-b]pyridin-1-yl)-3,5-dichlorobenzoic acid] | 0.0001 to 1 µM |
| Cc1noc(C)c1-c1cnc2c(c1)c(-c1ccc(C(=O)O)cc1OC(F)(F)F)cn2CC1CC(F)(F)C1 [P-0157, 4-(1-((3,3-difluorocyclobutyl)methyl)-5-(3,5-dimethylisoxazol-4-yl)-1H-pyrrolo[2,3-b]pyridin-3-yl)-3-(trifluoromethoxy)benzoic acid] | 0.0001 to 1 µM |
| Cc1noc(C)c1-c1cnc2c(c1)c(-c1ccc(C(=O)O)cc1OCC1CC1)cn2[C@@H](C)c1ccccn1 [P-0138, (S)-3-(cyclopropylmethoxy)-4-(5-(3,5-dimethylisoxazol-4-yl)-1-(1-(pyridin-2-yl)ethyl)-1H-pyrrolo[2,3-b]pyridin-3-yl)benzoic acid] | 0.0001 to 1 µM |
| COc1cc(C(=O)O)cc(OC)c1-c1cn([C@@H](C)c2ccccn2)c2ncc(-c3c(C)noc3C)cc12 [P-0103, (S)-4-(5-(3,5-dimethylisoxazol-4-yl)-1-(1-(pyridin-2-yl)ethyl)-1H-pyrrolo[2,3-b]pyridin-3-yl)-3,5-dimethoxybenzoic acid] | 0.0001 to 1 µM |
| Cc1noc(C)c1-c1cnc2c(c1)c(-c1cc(C(=O)O)ccn1)cn2C(C)c1ccccn1 (centres unmarked) [P-0124, 2-(5-(3,5-dimethylisoxazol-4-yl)-1-(1-(pyridin-2-yl)ethyl)-1H-pyrrolo[2,3-b]pyridin-3-yl)isonicotinic acid] | 0.0001 to 1 µM |
| COc1cc(C(=O)O)cc(OCc2ccccc2)c1-c1cn([C@@H](C)c2ccccn2)c2ncc(-c3c(C)noc3C)cc12 [P-0135, (S)-3-(benzyloxy)-4-(5-(3,5-dimethylisoxazol-4-yl)-1-(1-(pyridin-2-yl)ethyl)-1H-pyrrolo[2,3-b]pyridin-3-yl)-5-methoxybenzoic acid] | 0.0001 to 1 µM |
| CCOc1cc(C(=O)O)cc(F)c1-n1cc(CC2CCC2)c2ncc(-c3c(C)noc3C)cc21 [P-0108, 4-(3-(cyclobutylmethyl)-6-(3,5-dimethylisoxazol-4-yl)-1H-pyrrolo[3,2-b]pyridin-1-yl)-3-ethoxy-5-fluorobenzoic acid] | 0.0001 to 1 µM |
| Cc1noc(C)c1-c1cnc2c(c1)c(-c1ccc(C(=O)O)cc1)cn2C(c1ccccn1)C1CCC1 (centres unmarked) [P-0008, 4-(1-(cyclobutyl(pyridin-2-yl)methyl)-5-(3,5-dimethylisoxazol-4-yl)-1H-pyrrolo[2,3-b]pyridin-3-yl)benzoic acid] | 0.0001 to 1 µM |

Reference: US11446287B2, “Compounds and methods for EP300 or CBP modulation and indications therefor” (Opna Immuno-Oncology SA, priority 2019, dated 2022)
